ChEMBL document CHEMBL4376828, “Small-Molecule Inhibitors of Necroptosis: Current Status and Perspectives” (J Med Chem, 2020)
One block for each molecule: values may come before it.

Experiments:
HT-29 = assay: Anti-neprotic activity in human HT-29 cells assessed as reduction in TSZ-induced necroptosis incubated for 24 hrs by cell titer glo-based luminescence assay; format: functional; details: HT-29, 24 h
L929 = assay: Anti-neprotic activity in mouse L929 cells assessed as reduction in TNF-induced necroptosis and measured every 1 hr by SYTOX Green dye based fluorescence assay; format: functional, cell-based; details: L929, 1 h
Mus musculus [1] = assay: Antiinflammatory Activity in C57BL/6 mouse TNFalpha-induced mouse model of SIRS assessed as reduction in TNF-induced body temperature at 0.226 mg/kg, iv pretreated for 15 mins followed by TNFalpha-stimulation and measured up to 4 days by thermometric method relative to control; format: functional; design: scale not given: the % may be the effect or the level left
[2] = target: T1, Receptor-interacting serine/threonine-protein kinase 1 (Homo sapiens, UniProt Q13546); assay: Inhibition of recombinant human GST-tagged RIPK1 (1 to 479 residues) incubated for 4 hrs by ADP-Glo assay
T1 sequence (Q13546 whole entry): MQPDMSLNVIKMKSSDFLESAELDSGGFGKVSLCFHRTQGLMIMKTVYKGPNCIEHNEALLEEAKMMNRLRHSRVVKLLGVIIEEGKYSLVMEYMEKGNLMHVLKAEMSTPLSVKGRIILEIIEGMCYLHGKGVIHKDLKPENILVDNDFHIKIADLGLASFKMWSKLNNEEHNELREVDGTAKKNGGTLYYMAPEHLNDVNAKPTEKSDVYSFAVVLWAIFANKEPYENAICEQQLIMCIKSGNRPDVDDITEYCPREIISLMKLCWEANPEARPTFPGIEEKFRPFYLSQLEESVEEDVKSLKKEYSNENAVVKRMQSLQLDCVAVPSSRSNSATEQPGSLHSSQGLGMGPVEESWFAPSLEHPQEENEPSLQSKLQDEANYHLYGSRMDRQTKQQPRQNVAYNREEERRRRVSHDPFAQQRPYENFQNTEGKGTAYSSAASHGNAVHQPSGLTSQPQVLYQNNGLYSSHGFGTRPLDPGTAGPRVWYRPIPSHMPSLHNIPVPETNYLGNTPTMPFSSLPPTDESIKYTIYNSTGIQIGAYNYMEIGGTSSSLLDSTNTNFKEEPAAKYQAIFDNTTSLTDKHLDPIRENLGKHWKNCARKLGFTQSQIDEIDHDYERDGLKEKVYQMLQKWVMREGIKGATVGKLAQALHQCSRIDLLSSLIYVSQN

MEF = assay: Anti-neprotic activity in mouse MEF cells assessed as reduction in TNF-induced necroptosis and measured every 1 hr in presence of z-VAD by SYTOX Green dye based fluorescence assay; format: functional, cell-based
Mus musculus [3] = assay: Antiinflammatory Activity in C57BL/6 mouse TNFalpha-induced mouse model of SIRS assessed as reduction in TNF-induced body temperature at 0.124 mg/kg, iv pretreated for 15 mins followed by TNFalpha-stimulation and measured up to 4 days by thermometric method relative to control; format: functional; design: scale not given: the % may be the effect or the level left
[4] = target: T2, Receptor-interacting serine/threonine-protein kinase 3 (Homo sapiens, UniProt Q9Y572); assay: Inhibition of recombinant RIPK3 (unknown origin) using MBP as substrate preincubated for 15 mins followed by addition of MBP and measured after 120 min ADP-Glo kinase assay
T2 sequence (Q9Y572 whole entry): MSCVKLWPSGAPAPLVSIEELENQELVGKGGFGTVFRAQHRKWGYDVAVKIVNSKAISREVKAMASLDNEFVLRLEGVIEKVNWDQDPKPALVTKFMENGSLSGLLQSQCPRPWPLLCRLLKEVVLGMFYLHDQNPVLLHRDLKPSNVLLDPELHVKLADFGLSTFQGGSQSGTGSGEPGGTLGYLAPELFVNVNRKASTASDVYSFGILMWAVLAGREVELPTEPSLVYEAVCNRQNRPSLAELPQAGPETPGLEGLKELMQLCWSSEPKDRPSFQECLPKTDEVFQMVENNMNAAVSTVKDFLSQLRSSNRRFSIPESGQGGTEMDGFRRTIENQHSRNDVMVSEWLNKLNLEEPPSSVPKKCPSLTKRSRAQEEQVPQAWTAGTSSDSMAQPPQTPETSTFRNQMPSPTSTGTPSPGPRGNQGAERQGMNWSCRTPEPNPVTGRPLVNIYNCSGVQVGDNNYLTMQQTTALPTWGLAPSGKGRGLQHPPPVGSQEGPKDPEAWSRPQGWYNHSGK

Mus musculus [5] = assay: Antiinflammatory Activity in C57BL/6 mouse TNFalpha-induced mouse model of SIRS at 30 mg/kg, ip pretreated for 15 mins followed by TNFalpha-stimulation and measured after 72 hrs relative to control; format: functional
[6] = target: T3, Indoleamine 2,3-dioxygenase 1 (Homo sapiens, UniProt P14902); assay: Inhibition of IDO (unknown origin)
T3 sequence (P14902 whole entry): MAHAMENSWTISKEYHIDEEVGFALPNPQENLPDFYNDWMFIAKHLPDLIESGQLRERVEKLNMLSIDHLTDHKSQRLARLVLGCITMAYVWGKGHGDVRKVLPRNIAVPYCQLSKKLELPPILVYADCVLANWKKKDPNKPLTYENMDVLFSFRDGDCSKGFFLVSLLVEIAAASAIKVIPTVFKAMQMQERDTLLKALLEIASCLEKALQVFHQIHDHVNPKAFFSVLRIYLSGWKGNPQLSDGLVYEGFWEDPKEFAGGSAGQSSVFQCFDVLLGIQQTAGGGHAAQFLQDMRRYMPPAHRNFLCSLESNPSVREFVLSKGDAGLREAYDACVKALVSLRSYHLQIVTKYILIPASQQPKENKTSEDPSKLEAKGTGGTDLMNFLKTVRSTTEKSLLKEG

[7] = target: T3, Indoleamine 2,3-dioxygenase 1; assay: Inhibition of recombinant human IDO using L-Trp as substrate incubated for 60 mins
[8] = target: T2, Receptor-interacting serine/threonine-protein kinase 3; assay: Inhibition of human full length N-terminal GST-tagged RIPK3 expressed in baculovirus infected sf9 insect cells assessed as reduction in MBP phosphorylation using MBP as substrate by kinase-Glo luminescence assay
[9] = target: T2, Receptor-interacting serine/threonine-protein kinase 3; assay: Inhibition of human RIPK3 using MBP as substrate by [gamma33-ATP] based radiometric assay
[10] = target: T4, Receptor-interacting serine/threonine-protein kinase 2 (Homo sapiens, UniProt O43353); assay: Inhibition of human RIPK2 using MBP as substrate by [gamma33-ATP] based radiometric assay
T4 sequence (O43353 whole entry): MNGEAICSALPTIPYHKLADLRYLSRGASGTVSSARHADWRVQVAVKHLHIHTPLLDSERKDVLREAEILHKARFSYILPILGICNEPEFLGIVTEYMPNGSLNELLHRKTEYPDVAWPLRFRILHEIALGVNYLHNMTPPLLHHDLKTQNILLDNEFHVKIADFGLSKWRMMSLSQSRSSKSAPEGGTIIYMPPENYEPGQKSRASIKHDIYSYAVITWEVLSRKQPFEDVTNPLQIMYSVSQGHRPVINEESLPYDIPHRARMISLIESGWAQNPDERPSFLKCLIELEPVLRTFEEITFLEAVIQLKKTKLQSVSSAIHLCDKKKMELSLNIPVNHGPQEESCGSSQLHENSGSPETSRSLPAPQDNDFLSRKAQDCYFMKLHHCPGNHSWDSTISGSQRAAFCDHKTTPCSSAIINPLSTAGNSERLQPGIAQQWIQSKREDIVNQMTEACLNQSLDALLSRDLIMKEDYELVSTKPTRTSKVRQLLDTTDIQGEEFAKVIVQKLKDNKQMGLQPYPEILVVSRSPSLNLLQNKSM

[11] = target: T5, Dual serine/threonine and tyrosine protein kinase (Homo sapiens, UniProt Q6XUX3); assay: Inhibition of human RIPK5 using MBP as substrate by [gamma33-ATP] based radiometric assay
T5 sequence (Q6XUX3 whole entry): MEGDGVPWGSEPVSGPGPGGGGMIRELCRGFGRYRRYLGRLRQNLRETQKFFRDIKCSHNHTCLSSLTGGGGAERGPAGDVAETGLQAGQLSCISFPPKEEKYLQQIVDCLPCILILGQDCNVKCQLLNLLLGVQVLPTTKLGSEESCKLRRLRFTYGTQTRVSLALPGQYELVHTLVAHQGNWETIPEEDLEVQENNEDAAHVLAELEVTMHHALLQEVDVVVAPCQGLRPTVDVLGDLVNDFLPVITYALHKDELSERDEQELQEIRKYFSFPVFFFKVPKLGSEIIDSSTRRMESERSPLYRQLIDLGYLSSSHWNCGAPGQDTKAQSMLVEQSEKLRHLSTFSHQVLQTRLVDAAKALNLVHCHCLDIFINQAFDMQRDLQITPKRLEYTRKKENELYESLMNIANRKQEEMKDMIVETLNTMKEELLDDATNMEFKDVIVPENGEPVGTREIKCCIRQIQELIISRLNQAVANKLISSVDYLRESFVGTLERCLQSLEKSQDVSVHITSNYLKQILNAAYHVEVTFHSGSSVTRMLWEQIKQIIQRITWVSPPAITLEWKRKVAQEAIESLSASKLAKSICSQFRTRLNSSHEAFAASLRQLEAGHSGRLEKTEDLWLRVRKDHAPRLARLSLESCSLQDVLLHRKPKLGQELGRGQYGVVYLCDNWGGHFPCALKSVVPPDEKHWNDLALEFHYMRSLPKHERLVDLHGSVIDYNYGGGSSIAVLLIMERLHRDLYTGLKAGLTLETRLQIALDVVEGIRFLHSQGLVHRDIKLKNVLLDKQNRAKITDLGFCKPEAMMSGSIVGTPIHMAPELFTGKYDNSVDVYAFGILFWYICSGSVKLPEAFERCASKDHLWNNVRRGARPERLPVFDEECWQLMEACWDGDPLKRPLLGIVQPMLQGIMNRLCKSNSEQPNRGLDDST

[12] = target: T1, Receptor-interacting serine/threonine-protein kinase 1; assay: Inhibition of human RIPK1 using MBP as substrate by [gamma33-ATP] based radiometric assay
Jurkat = assay: Anti-neprotic activity in human Jurkat cells FADD defient assessed as reduction in TNFalpha-induced necroptosis preincubated for 30 mins followed by addition of TNFalpha-stimulation and further incubated for over night by Cell Titer Glo assay; format: functional, cell-based
[13] = target: T6, Receptor-interacting serine/threonine-protein kinase 1 (Homo sapiens) (UniProt Q13546)
T6 sequence (whole entry): T1 sequence (Q13546 whole entry)

[14] = target: T1, Receptor-interacting serine/threonine-protein kinase 1; assay: Inhibition of GSK657 binding to human RIPK1 (1 to 328) by fluorescence Polarization assay
[15] = target: T1, Receptor-interacting serine/threonine-protein kinase 1; assay: Inhibition of human RIPK1 by ADP-Glo assay
[16] = target: T4, Receptor-interacting serine/threonine-protein kinase 2; assay: Inhibition of recombinant human His-tagged RIPK2 (8 to 317 residues) incubated for 1 hr by ADP-Glo assay
[17] = target: Tyrosine-protein kinase ABL1 (Homo sapiens, UniProt P00519); assay: Inhibition of Abl (unknown origin) incubated for 1 hr by ADP-Glo assay
Tyrosine-protein kinase ABL1, sequence (P00519 whole entry): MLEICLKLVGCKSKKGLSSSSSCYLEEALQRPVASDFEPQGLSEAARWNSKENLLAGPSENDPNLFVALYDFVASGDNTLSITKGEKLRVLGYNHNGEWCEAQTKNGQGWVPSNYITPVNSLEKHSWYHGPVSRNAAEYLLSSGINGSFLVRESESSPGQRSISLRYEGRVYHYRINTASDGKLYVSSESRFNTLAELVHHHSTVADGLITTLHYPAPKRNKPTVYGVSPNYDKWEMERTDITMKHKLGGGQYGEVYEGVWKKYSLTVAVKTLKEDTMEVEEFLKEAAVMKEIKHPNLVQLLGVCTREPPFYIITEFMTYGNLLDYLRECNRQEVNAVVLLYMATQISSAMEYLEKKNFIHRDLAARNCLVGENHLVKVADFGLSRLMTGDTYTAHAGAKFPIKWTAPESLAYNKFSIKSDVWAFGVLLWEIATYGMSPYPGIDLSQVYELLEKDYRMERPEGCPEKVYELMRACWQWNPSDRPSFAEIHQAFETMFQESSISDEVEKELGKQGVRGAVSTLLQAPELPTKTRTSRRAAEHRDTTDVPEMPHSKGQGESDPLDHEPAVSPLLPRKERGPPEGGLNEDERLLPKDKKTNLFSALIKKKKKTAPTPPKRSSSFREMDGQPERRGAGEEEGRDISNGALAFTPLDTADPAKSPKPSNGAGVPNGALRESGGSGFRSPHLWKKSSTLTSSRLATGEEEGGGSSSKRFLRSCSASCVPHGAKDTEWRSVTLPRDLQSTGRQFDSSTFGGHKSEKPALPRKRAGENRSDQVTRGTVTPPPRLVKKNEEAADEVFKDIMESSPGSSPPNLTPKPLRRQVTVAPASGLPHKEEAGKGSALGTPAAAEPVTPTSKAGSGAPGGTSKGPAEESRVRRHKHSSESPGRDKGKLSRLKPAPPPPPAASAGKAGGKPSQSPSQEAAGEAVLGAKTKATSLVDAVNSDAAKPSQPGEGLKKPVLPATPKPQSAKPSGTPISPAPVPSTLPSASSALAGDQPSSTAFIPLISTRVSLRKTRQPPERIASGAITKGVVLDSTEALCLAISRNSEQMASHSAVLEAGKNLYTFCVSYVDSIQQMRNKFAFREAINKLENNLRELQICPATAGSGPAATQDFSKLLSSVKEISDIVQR

[18] = target: T1, Receptor-interacting serine/threonine-protein kinase 1; assay: Inhibition of RIPK1 (unknown origin)
[19] = target: T7, Mixed lineage kinase domain-like protein (Homo sapiens) (UniProt Q8NB16)
T7 sequence (whole entry): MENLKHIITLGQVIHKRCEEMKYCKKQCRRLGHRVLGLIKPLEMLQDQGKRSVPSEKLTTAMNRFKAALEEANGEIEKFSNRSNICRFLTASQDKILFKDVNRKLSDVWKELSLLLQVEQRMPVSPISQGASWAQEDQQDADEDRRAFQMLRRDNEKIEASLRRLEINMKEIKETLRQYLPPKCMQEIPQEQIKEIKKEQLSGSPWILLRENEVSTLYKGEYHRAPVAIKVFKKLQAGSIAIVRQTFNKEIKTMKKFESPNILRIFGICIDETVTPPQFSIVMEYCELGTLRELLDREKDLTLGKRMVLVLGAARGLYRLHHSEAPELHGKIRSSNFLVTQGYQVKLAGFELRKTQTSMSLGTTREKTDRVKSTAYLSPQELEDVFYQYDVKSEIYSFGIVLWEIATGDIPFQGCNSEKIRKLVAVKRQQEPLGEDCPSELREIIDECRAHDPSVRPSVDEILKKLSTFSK

[20] = target: T8, Receptor-interacting serine/threonine-protein kinase 1 (Mus musculus, UniProt Q60855); assay: Inhibition of mouse RIPK1; details: read-out: Ki(app)
T8 sequence (Q60855 whole entry): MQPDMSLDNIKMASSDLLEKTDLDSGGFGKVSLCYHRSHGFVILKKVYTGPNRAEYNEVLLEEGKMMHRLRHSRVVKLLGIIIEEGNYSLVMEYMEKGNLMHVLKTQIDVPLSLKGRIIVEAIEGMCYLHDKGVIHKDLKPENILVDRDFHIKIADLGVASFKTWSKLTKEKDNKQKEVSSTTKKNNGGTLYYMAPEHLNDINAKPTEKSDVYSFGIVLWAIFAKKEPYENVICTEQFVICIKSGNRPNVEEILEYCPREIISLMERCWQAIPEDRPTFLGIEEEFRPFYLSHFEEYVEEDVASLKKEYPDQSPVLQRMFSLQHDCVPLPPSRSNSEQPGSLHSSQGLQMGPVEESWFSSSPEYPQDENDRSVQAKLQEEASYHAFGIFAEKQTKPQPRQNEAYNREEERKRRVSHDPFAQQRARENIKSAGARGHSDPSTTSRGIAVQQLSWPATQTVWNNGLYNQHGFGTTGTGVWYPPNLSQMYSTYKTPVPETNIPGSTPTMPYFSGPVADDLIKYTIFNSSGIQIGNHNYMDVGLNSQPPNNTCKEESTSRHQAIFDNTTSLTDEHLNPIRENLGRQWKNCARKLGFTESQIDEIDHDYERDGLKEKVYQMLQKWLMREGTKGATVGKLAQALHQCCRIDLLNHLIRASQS

Mus musculus [21] = assay: Antiinflammatory activity in TNF-induced mouse model of SIRS assessed as reduction in TNF-induced body temperature at 5 mg/kg, po and measured after 2 to 4 hrs by infrared ear Thermometric method relative to control; format: functional; design: scale not given: the % may be the effect or the level left
Fibroblast = assay: Anti-neprotic activity in mouse fibroblasts cells; format: functional, cell-based

SMILES: COc1nccnc1NS(=O)(=O)c1ccc(NC(=O)/C=C/c2ccc([N+](=O)[O-])s2)cc1
IC50 (HT-29): < 200 nM

SMILES: Cn1cc(-c2ccc3c(c2)CCN3C(=O)Cc2cccc(C(F)(F)F)c2)c2c(N)ncnc21
IC50 (L929): 0.4 nM
Activity (Mus musculus [1]): 100%

SMILES: Cn1c(=O)c2c(nc(S(C)(=O)=O)n2C)n(C)c1=O
IC50 (HT-29): 390 nM

IC50 [2]: 69 nM
SMILES: Cn1cc(-c2ccc3c(c2F)CCN3C(=O)Cc2cccc(C(F)(F)F)n2)c2c(N)ncnc21
IC50 (L929): 0.1 nM
IC50 (MEF): 4 nM
Activity (Mus musculus [3]): 100%

IC50 [4]: > 1000 nM
SMILES: CC(=O)Nc1nc2ccc(-c3cnc(Cl)c(CC(=O)Cc4ccccc4)c3)cc2s1
Activity (Mus musculus [5]): 90%

IC50 [6]: 100 µM
IC50 [7]: 110 nM
SMILES: CN1C(=O)C(Cc2c[nH]c3ccccc23)NC1=S (centres undefined) [NECROSTATIN]

IC50 [8]: 250 nM
IC50 [9]: 2 nM
IC50 [10]: 77 nM
IC50 [11]: 29.4 µM
IC50 [12]: 53.2 µM
SMILES: CC(C)(C)c1nc(-c2cccc(NS(=O)(=O)c3c(F)cccc3F)c2F)c(-c2ccnc(N)n2)s1 [DABRAFENIB]

IC50 [7]: 110 nM
SMILES: O=C1NC(=S)NC1Cc1c[nH]c2ccccc12 (centres undefined)

ΔTm [13]: -0.15 °C
SMILES: Nc1nccnc1C(=O)O[C@@H](C(=O)Nc1ccc(F)cc1)c1ccccc1
IC50 (Jurkat): > 40 µM

IC50 [14]: 8.6 nM
IC50 [15]: 6.5 nM
SMILES: Cc1cc(-c2cnc(N)c3c(-c4ccc5scnc5c4)csc23)n(C)n1

IC50 [16]: 1190 nM
IC50 [17]: > 1000 nM
SMILES: Cc1ccc(CCCCN2C(=O)N[C@H](Cc3c[nH]c4c(Cl)cccc34)C2=O)cc1C#Cc1cnc2cccnn12

IC50 [18]: 73.6 nM
SMILES: Cc1ccc(O)cc1Nc1ccnc2cc(-c3ccccn3)ccc12

ΔTm [19]: 5.63 °C
ΔTm [13]: 0.75 °C
SMILES: C[C@@H](Oc1cc(-c2cnn(C3CCNCC3)c2)cnc1N)c1c(Cl)ccc(F)c1Cl [CRIZOTINIB]
IC50 (Jurkat): > 40 µM

IC50 [14]: 0.9 nM
IC50 [15]: 0.3 nM
SMILES: CNC(=O)c1ccc2c(c1)ncn2-c1ccc(CC(=O)OC(C)(C)C)cc1

Ki [20]: 189 nM
SMILES: COc1ccc2c(c1)CC[C@H](NC(=O)c1nc3n(n1)[C@H](c1ccccc1)CC3)C(=O)N2C
Activity (Mus musculus [21]): 100%

SMILES: CN(c1ccc(NC(=O)Nc2ccc(OC(F)(F)F)cc2)cc1)c1ccnc(Nc2cccc(S(N)(=O)=O)c2)n1 [GW806742X]
IC50 (Fibroblast): < 50 nM

SMILES: Cn1c(=O)c2c(nc(S(C)(=O)=O)n2C)n(CC#Cc2cccc(O)c2)c1=O
IC50 (HT-29): 2 nM
